The test system of the assay is HepG2 viability, CellTiter-Glo ATP luminescence, 72 h. The assay can be described thus: viability loss in human hepatoma cells – cell-based, CellTiter-Glo luminescence, cherry-pick, set 2, cytotoxicity control, dose response (AID 743395).

Take `Cc1ccc(COc2ccccc2-c2cc(C(=O)N/N=C/c3cccnc3)[nH]n2)cc1`: the AC35 is 14.7 µM. Regarding `CC[n+]1c(-c2ccccc2)c2cc(N)ccc2c2ccc(N)cc21`, the AC35 was 21.5 µM. Regarding `C[C@H]1CN([C@@H](C)CO)S(=O)(=O)c2ccc(C#Cc3ccc(F)cc3)cc2O[C@H]1CN(C)C(=O)NC1CCCCC1`, the AC35 was 11.9 µM. `O=C(CCCN1CCC(O)(c2cccc(C(F)(F)F)c2)CC1)c1ccc(F)cc1`: the AC35 is 22.2 µM.

With `COc1cccc2c1C(=O)c1c(O)c3c(c(O)c1C2=O)C[C@@](O)(C(C)=O)C[C@@H]3O[C@H]1C[C@H](N)[C@H](O)[C@H](C)O1`, the AC35 was 0.156 µM.

Consider `COc1ccc2sc3cccc(NCCN(C)C)c3c(=O)c2c1`, for which the AC35 was 10.4 µM. Consider `C[C@H](CO)N1C[C@H](C)[C@@H](CN(C)Cc2ccc(Cl)c(Cl)c2)Oc2ccc(NC(=O)Nc3ccc(C(F)(F)F)cc3)cc2CC1=O`, for which the AC35 is 10.5 µM. Consider `CC(C)CN(CCCNC(=O)CN1C(=O)CSc2ccc(S(=O)(=O)N3CCOCC3)cc21)CC(C)C`, for which the AC35 is 6.21 µM. Next, `Cc1cccc(N(C)C(=O)c2cc3c(=O)[nH]c4ccc(C)cc4c3s2)c1`: 4.26 µM.

Take `CCN(CC)CCCNc1nc2ccccc2c2[nH]c3ccc(OC)cc3c12`: the AC35 is 2.39 µM. On to `CC(C)n1cc(/C=C/c2cc[n+](C)cc2)c2ccccc21`, for which the AC35 was 11.2 µM.

With `CCCC(=O)NC(c1ccc(Cl)cc1)c1ccc2cccnc2c1O` (configuration not stated), the AC35 is 1.77 µM. As for `COc1cccc(-c2ccc(C3[C@@H]4CN(S(=O)(=O)c5cccc(OC)c5)C[C@H]3N4)cc2)c1` (some centres not stated), the AC35 was 8.91 µM. In the case of `NC(=S)NN=Cc1nccc2c(N)cccc12` it was 4.16 µM; in that of `CCOC(=O)c1c(NC(=O)C(=O)N/N=C/c2ccccc2O)sc2c1CCCCC2`, 13.7 µM; in that of `Cc1ccc2nc(-c3ccc4c(c3)OCCO4)cn2c1`, 8.36 µM. Consider `OC[C@@H]1CN(Cc2ccc(-c3ccccc3)cc2)C[C@H](n2cnc3c(NC4CC4)ncnc32)O1`, for which the AC35 is 19.3 µM. In the case of `O=C(CCc1ccccc1)NCC(c1ccco1)N1CCc2ccccc21` (configuration not stated), the AC35 is 16.7 µM.

Consider `CCc1nc(N)nc(N)c1-c1ccc(Cl)c([N+](=O)[O-])c1`, for which the AC35 is 0.276 µM. As to `O=S(=O)(Nc1cc(Sc2cccc3cccnc23)c(O)c2ccccc12)c1ccccc1`, the AC35 is 7.49 µM.

In the case of `COc1cc(OC)cc(C(=O)c2c(C)c(C#N)c3ccccn23)c1`, the AC35 is 9.29 µM. On to `COc1cc(OC)cc(-c2cc3ccc(OC)cc3cn2)c1`, for which the AC35 is 4.68 µM. Take `C/C(=N\NC(=O)c1cc(-c2cccs2)nc2ccccc12)c1ccccn1`: the AC35 is 1.63 µM. In the case of `CC(C)Oc1ncnc2c1[nH]c1ccccc12`, the AC35 is 8.5 µM.

Turning to `CCc1ccc(OCc2n[nH]c(=S)n2C(C)CCCC(C)C)cc1` (configuration not stated), the AC35 is 13.9 µM. As for `CCN1CCN(c2cc(C)c3cc(NC(=O)c4ccc(OC)c(OC)c4)ccc3n2)CC1`, the AC35 was 12.4 µM. In the case of `CCN(CC)c1ccc(/C=N/NC(=O)c2cnccn2)c(O)c1` it was 1.61 µM; in that of `Cc1ccc(C2NC(=O)c3ccccc3N2)c(C)c1` (configuration not stated), 13.8 µM. Consider `O=c1c2ccccc2oc2cc(-c3ccc4[nH]ccc4c3)ccc12`, for which the AC35 was 4.72 µM.

Regarding `c1coc(-c2nc3ccccc3s2)c1`, the AC35 is 7.04 µM.

Regarding `COc1ccc(CN(C)C[C@H]2OCCCC[C@H](C)Oc3ccc(NC(=O)Nc4ccc(C(F)(F)F)cc4)cc3C(=O)N([C@H](C)CO)C[C@H]2C)cc1`, the AC35 was 10.1 µM. Turning to `CCN1/C(=C/c2ccc3cc(C)cc(C)c3[n+]2CC)Sc2cc(C)ccc21`, the AC35 is 0.908 µM.

Take `COc1cc(NC(=O)N2CCNC2=O)cc(C(=O)Nc2cccc(C(F)(F)F)c2)c1`: the AC35 is 1.54 µM.

`COc1ccccc1NC(=O)CSc1ccc(-c2ccccn2)nn1`: the AC35 is 20.4 µM. `COc1ccccc1N1CCN(C(=O)c2ccc(-c3ccc(Cl)cc3)o2)CC1`: the AC35 is 3.02 µM. In the case of `O=C(N/N=C/c1cc2c3c(c1O)CCCN3CCC2)c1ccccc1O`, the AC35 is 0.751 µM. For the compound `CC(C)(C)c1cc(C(=O)NN)n(Cc2ccc(Cl)cc2Cl)n1`, the AC35 was 18.7 µM.
